{"source": "paper PMC12396409", "about": "“Screening and hit evaluation of a microbial metabolite library against the pathogenic Plasmodium falciparum and Toxoplasma gondii parasites” (International Journal for Parasitology: Drugs and Drug …, 2025)", "key": {"[1]": {"tested_on": "T. gondii RH strain (RH-Tub-eYFP) tachyzoites", "test": "microbe, parasite or virus in culture", "format": "cell-based, Toxoplasma gondii"}, "[2]": {"tested_on": "P. falciparum 3D7 parasites", "test": "P. falciparum growth inhibition assay, 2-cycle (120 h treatment), delayed-death screen and dose-response", "format": "cell-based, Plasmodium falciparum", "conditions": "120 h; for activity at 2 µg/mL: Plasmodium falciparum"}, "[3]": {"tested_on": "P. falciparum 3D7 parasites", "test": "P. falciparum growth inhibition assay, 1-cycle (72 h treatment), SYBR DNA staining (library screen at 2 μg/mL and dose-response)", "format": "cell-based, Plasmodium falciparum", "conditions": "for Pf_72h_%Growth_Rep1 / Pf_72h_%Growth_Rep2 / activity at 2 µg/mL: 72 h; for activity at 2 µg/mL: Plasmodium falciparum"}, "[4]": {"conditions": "T. gondii, 72 h, screen at 2 μg/mL, replicate 1"}, "[5]": {"conditions": "T. gondii, 72 h, screen at 2 μg/mL, replicate 2"}, "[6]": {"conditions": "P. falciparum, screen at 2 μg/mL, replicate 1"}, "[7]": {"conditions": "P. falciparum, screen at 2 μg/mL, replicate 2"}, "[8]": {"conditions": "P. falciparum, parasite screen 2 μg/mL, % growth, replicate 1"}, "[9]": {"conditions": "P. falciparum, parasite screen 2 μg/mL, % growth, replicate 2"}, "[10]": {"conditions": "3D7, P. falciparum, screen at 2 μg/mL, replicate 1, read-out: Pf_120h_%Growth_Rep1"}, "[11]": {"conditions": "3D7, P. falciparum, screen at 2 μg/mL, replicate 2, read-out: Pf_120h_%Growth_Rep2"}, "[12]": {"conditions": "3D7, P. falciparum, screen at 2 μg/mL, replicate 1, read-out: Pf_72h_%Growth_Rep1"}, "[13]": {"conditions": "3D7, P. falciparum, screen at 2 μg/mL, replicate 2, read-out: Pf_72h_%Growth_Rep2"}, "[14]": {"conditions": "Toxoplasma gondii, 72 h, T. gondii, 72 h, screen at 2 μg/mL, replicate 1; read-out: Tg_72h_%Growth_Rep1"}, "[15]": {"conditions": "Toxoplasma gondii, 72 h, T. gondii, 72 h, screen at 2 μg/mL, replicate 2; read-out: Tg_72h_%Growth_Rep2"}, "[16]": {"conditions": "library screen at 2 μg/mL, % growth, replicate 1"}, "[17]": {"conditions": "library screen at 2 μg/mL, % growth, replicate 2"}, "[18]": {"conditions": "active against the parasite at 2 μg/mL, no anti-tumour (NS-1) or cytotoxic (fibroblast) activity at 5 μg/mL"}}, "note": "Read-outs that look alike come from different tables or passages of the source. Where a SMILES comes first, the peptide text is derived from it. [ ]: non-standard residue; d: D form. GABA = NCCCC(=O)O", "data": [{"smiles": "CC(=O)OC1CCC(C)C2C1C=C(C)C1C(C)=CCCC(C)=CC3(C)C=C(C)C(C)CC34OC(=O)C(=C(O)C12C)C4=O", "note": "(stereo not drawn) [Tetromycin A]", "values": [{"measurement": "Tg_72h_%Growth_Rep1", "setting": "[1]; [4]", "value": 141.34, "unit": "%"}, {"measurement": "Tg_72h_%Growth_Rep2", "setting": "[1]; [5]", "value": 89.51, "unit": "%"}, {"measurement": "Pf_120h_%Growth_Rep1", "setting": "[2]; [6]", "value": 96.09, "unit": "%"}, {"measurement": "Pf_120h_%Growth_Rep2", "setting": "[2]; [7]", "value": 91.15, "unit": "%"}, {"measurement": "Pf_72h_%Growth_Rep1", "setting": "[3]; [6]", "value": 87.03, "unit": "%"}, {"measurement": "Pf_72h_%Growth_Rep2", "setting": "[3]; [7]", "value": 84.23, "unit": "%"}]}, {"smiles": "COc1ccc2c(c1)N(C(C)=O)[C@H]1[C@@H]3CO[C@H](C)[C@@H]4CN5CC[C@]21[C@@H]5C[C@H]34", "note": "[Strychnospermine]", "values": [{"measurement": "Tg_72h_%Growth_Rep1", "setting": "[1]; T. gondii, 72 h, parasite screen 2 μg/mL, % growth, replicate 1", "value": 96.72, "unit": "%"}, {"measurement": "Tg_72h_%Growth_Rep2", "setting": "[1]; T. gondii, 72 h, parasite screen 2 μg/mL, % growth, replicate 2", "value": 111.43, "unit": "%"}, {"measurement": "Pf_120h_%Growth_Rep1", "setting": "[2]; [8]", "value": 157.71, "unit": "%"}, {"measurement": "Pf_120h_%Growth_Rep2", "setting": "[2]; [9]", "value": 76.73, "unit": "%"}, {"measurement": "Pf_72h_%Growth_Rep1", "setting": "[3]; [8]", "value": 72.81, "unit": "%"}, {"measurement": "Pf_72h_%Growth_Rep2", "setting": "[3]; [9]", "value": 85.90, "unit": "%"}]}, {"smiles": "COc1ccc2c3c4n(c2c1)[C@H](C=C(C)C)OOC(C)(C)C[C@@H]4N1C(=O)[C@@H]2CCCN2C(=O)[C@]1(O)[C@H]3O", "note": "[Verruculogen]", "values": [{"measurement": "percent parasite growth at 2 µg/mL", "setting": "[1]; Toxoplasma gondii; T. gondii, 72 h, screen at 2 μg/mL, replicate 1; read-out: Tg_72h_%Growth_Rep1", "value": 92.4, "unit": "%"}, {"measurement": "percent parasite growth at 2 µg/mL", "setting": "[1]; Toxoplasma gondii; T. gondii, 72 h, screen at 2 μg/mL, replicate 2; read-out: Tg_72h_%Growth_Rep2", "value": 102, "unit": "%"}, {"measurement": "activity at 2 µg/mL", "setting": "[2]; [10]", "value": 144, "unit": "%"}, {"measurement": "activity at 2 µg/mL", "setting": "[2]; [11]", "value": 80.6, "unit": "%"}, {"measurement": "activity at 2 µg/mL", "setting": "[3]; [12]", "value": 58.1, "unit": "%"}, {"measurement": "activity at 2 µg/mL", "setting": "[3]; [13]", "value": 88.5, "unit": "%"}]}, {"smiles": "O=C(O)/C=C/c1ccccc1", "note": "[Cinnamic acid]", "values": [{"measurement": "percent parasite growth at 2 µg/mL", "setting": "[1]; [14]", "value": 86.5, "unit": "%"}, {"measurement": "percent parasite growth at 2 µg/mL", "setting": "[1]; [15]", "value": 96.7, "unit": "%"}, {"measurement": "activity at 2 µg/mL", "setting": "[2]; [10]", "value": 147, "unit": "%"}, {"measurement": "activity at 2 µg/mL", "setting": "[2]; [11]", "value": 102, "unit": "%"}, {"measurement": "activity at 2 µg/mL", "setting": "[3]; [12]", "value": 90.3, "unit": "%"}, {"measurement": "activity at 2 µg/mL", "setting": "[3]; [13]", "value": 87.8, "unit": "%"}]}, {"smiles": "CC(C)C[C@@H]1NC(=O)[C@@H](C(C)C)NC(=O)[C@@H](C)NC(=O)CCCNC(=O)[C@@H](Cc2c[nH]c3ccccc23)NC(=O)[C@@H](C)NC(=O)[C@@H](C(C)C)NC1=O", "note": "[Unguisin B] (cyclo([GABA][dA][dV]L[dV][dA][dW]))", "values": [{"measurement": "Tg_72h_%Growth_Rep1", "setting": "[1]; [4]", "value": 121.22, "unit": "%"}, {"measurement": "Tg_72h_%Growth_Rep2", "setting": "[1]; [5]", "value": 81.61, "unit": "%"}, {"measurement": "Pf_120h_%Growth_Rep1", "setting": "[2]; [6]", "value": 112.33, "unit": "%"}, {"measurement": "Pf_120h_%Growth_Rep2", "setting": "[2]; [7]", "value": 102.07, "unit": "%"}, {"measurement": "Pf_72h_%Growth_Rep1", "setting": "[3]; [6]", "value": 89.12, "unit": "%"}, {"measurement": "Pf_72h_%Growth_Rep2", "setting": "[3]; [7]", "value": 119.76, "unit": "%"}]}, {"smiles": "C=CC(C)(C)C12CC3C(=O)Nc4ccccc4C(=O)N3C1Nc1ccccc12", "note": "(stereo not drawn) [Aszonalenin]", "values": [{"measurement": "Tg_72h_%Growth_Rep1", "setting": "[1]; library screen at 2 μg/mL, 72 h, % growth, replicate 1", "value": 156.81, "unit": "%"}, {"measurement": "Tg_72h_%Growth_Rep2", "setting": "[1]; library screen at 2 μg/mL, 72 h, % growth, replicate 2", "value": 98.02, "unit": "%"}, {"measurement": "Pf_120h_%Growth_Rep1", "setting": "[2]; [16]", "value": 90.27, "unit": "%"}, {"measurement": "Pf_120h_%Growth_Rep2", "setting": "[2]; [17]", "value": 94.67, "unit": "%"}, {"measurement": "Pf_72h_%Growth_Rep1", "setting": "[3]; [16]", "value": 81.55, "unit": "%"}, {"measurement": "Pf_72h_%Growth_Rep2", "setting": "[3]; [17]", "value": 89.57, "unit": "%"}]}, {"smiles": "Nc1ncnc2c1ncn2[C@@H]1O[C@H](C[C@@H](N)CC[C@H](N)C(=O)O)[C@@H](O)[C@H]1O", "note": "[sinefungin, reference compound]", "values": [{"measurement": "percent parasite growth at 2 µg/mL", "setting": "[1]; Toxoplasma gondii, 72 h, T. gondii, 72 h, parasite screen 2 μg/mL, % growth, replicate 1; read-out: Tg_72h_%Growth_Rep1", "value": 7.22, "unit": "%"}, {"measurement": "percent parasite growth at 2 µg/mL", "setting": "[1]; Toxoplasma gondii, 72 h, T. gondii, 72 h, parasite screen 2 μg/mL, % growth, replicate 2; read-out: Tg_72h_%Growth_Rep2", "value": 12.7, "unit": "%"}, {"measurement": "selectivity for T. gondii in the screens", "setting": "[1]; [18]", "value": "also active"}, {"measurement": "activity at 2 µg/mL", "setting": "[2]; 3D7, P. falciparum, parasite screen 2 μg/mL, % growth, replicate 1, read-out: Pf_120h_%Growth_Rep1", "value": 13.4, "unit": "%"}, {"measurement": "activity at 2 µg/mL", "setting": "[2]; 3D7, P. falciparum, parasite screen 2 μg/mL, % growth, replicate 2, read-out: Pf_120h_%Growth_Rep2", "value": -3.05, "unit": "%"}, {"measurement": "activity at 2 µg/mL", "setting": "[3]; 3D7, P. falciparum, parasite screen 2 μg/mL, % growth, replicate 1, read-out: Pf_72h_%Growth_Rep1", "value": 17.1, "unit": "%"}, {"measurement": "activity at 2 µg/mL", "setting": "[3]; 3D7, P. falciparum, parasite screen 2 μg/mL, % growth, replicate 2, read-out: Pf_72h_%Growth_Rep2", "value": 12.1, "unit": "%"}, {"measurement": "selectivity for P. falciparum in the screens", "setting": "[3]; [18]", "value": "also active"}]}, {"smiles": "Cc1cc(O)c(C)c(O)c1C(=O)Oc1c(C)c(C)c(C(=O)Oc2c(C)c(C)c(C(=O)O)c(O)c2C)c(O)c1C", "note": "[Thielavin A]", "values": [{"measurement": "Tg_72h_%Growth_Rep1", "setting": "[1]; [4]", "value": 89.38, "unit": "%"}, {"measurement": "Tg_72h_%Growth_Rep2", "setting": "[1]; [5]", "value": 91.04, "unit": "%"}, {"measurement": "Pf_120h_%Growth_Rep1", "setting": "[2]; [6]", "value": 119.92, "unit": "%"}, {"measurement": "Pf_120h_%Growth_Rep2", "setting": "[2]; [7]", "value": 51.57, "unit": "%"}, {"measurement": "IC50", "setting": "[3]; 3D7, 72 h treatment, mean ± S.D., n ≥ 3, read-out: IC50 (μM), P. falciparum", "value": "> 1", "unit": "µM"}, {"measurement": "Pf_72h_%Growth_Rep1", "setting": "[3]; [6]", "value": 46.40, "unit": "%"}, {"measurement": "Pf_72h_%Growth_Rep2", "setting": "[3]; [7]", "value": 70.42, "unit": "%"}]}, {"smiles": "Nc1ncnc2c1ccn2[C@@H]1O[C@H](CO)[C@@H](O)[C@H]1O", "note": "[Tubercidin]", "values": [{"measurement": "percent parasite growth at 2 µg/mL", "setting": "[1]; [14]", "value": 3.92, "unit": "%"}, {"measurement": "percent parasite growth at 2 µg/mL", "setting": "[1]; [15]", "value": 3.05, "unit": "%"}, {"measurement": "activity at 2 µg/mL", "setting": "[2]; 3D7, 120 h, P. falciparum, screen at 2 μg/mL, replicate 1, read-out: Pf_120h_%Growth_Rep1", "value": 40.9, "unit": "%"}, {"measurement": "activity at 2 µg/mL", "setting": "[2]; 3D7, 120 h, P. falciparum, screen at 2 μg/mL, replicate 2, read-out: Pf_120h_%Growth_Rep2", "value": 12.8, "unit": "%"}, {"measurement": "activity at 2 µg/mL", "setting": "[3]; 3D7, 72 h, P. falciparum, screen at 2 μg/mL, replicate 1, read-out: Pf_72h_%Growth_Rep1", "value": 7.17, "unit": "%"}, {"measurement": "activity at 2 µg/mL", "setting": "[3]; 3D7, 72 h, P. falciparum, screen at 2 μg/mL, replicate 2, read-out: Pf_72h_%Growth_Rep2", "value": 7.42, "unit": "%"}]}]}
